Measurements: patent US20070078177A1, “METHODS AND COMPOSITIONS FOR TREATING NON AGE RELATED HEARING IMPAIRMENT IN A SUBJECT” (WASHINGTON UNIVERSITY IN ST. LOUIS, priority 2005, published 2007)
“Also recorded” adds a separate entry of the source.

Assays:
[1] = system: outer hair cells (OHCs), inner hair cells (IHCs), and spiral ganglion neurons (SGNs); test: Cochlear histology after noise exposure: counting of IHCs, OHCs and SGNs, cytocochleograms; assay type: in vivo, C57BL/6J mice; conditions: for number (density) of SGNs, control vs drug-treated mice: apex, middle and base regions, male mice at 3 months, drug after noise, FIG. 6B (trimethadione), FIG. 7 (ethosuximide); for gross morphological changes in mid-modiolar sections, control vs drug-treated mice: drug after noise exposure
Text: The methods for fixing, processing and analyzing the mouse cochlea have been described in detail elsewhere (Ohlemiller et al., 2000; Ou et al., 2000). Briefly, mice were perfused transcardially with cold 2% paraformaldehyde and 2% glutaraldehyde in 0.1 M phosphate buffer. Both cochleae were isolated, the stapes removed, and immersed in the same fixative. Complete exposure of the cochlea to the fixative was ensured by making a small hole at the apex of the cochlear capsule, gently circulating the fixative over the cochlea using a transfer pipet. After decalcification in sodium EDTA, the cochleae were post-fixed in buffered 1% osmium tetroxide, dehydrated in an ascending acetone series, and embedded in Epon. For SGN counting, mid-modiolar sections (4 μm) were cut and about fifty sections were collected for each cochlea. The number of SGN nuclei at the apex, middle, and base was counted every fifth section (total 10 sections per one cochlea) under a 200× visual field using a computerized planimetry program of Image Pro Plus (Media Cybernetics). Because all sections were cut in a similar orientation, it was possible to evaluate comparisons between two groups by Mann-Whitney tests. For hair cell counting, cochleae were dissected into roughly half-turn segments. These half-turn segments were examined in mineral oil under Nomarski optics, using a calibrated ocular. Three separate inner hair cell (IHC) and outer hair cell (OHC) counts were obtained from non-overlapping 100 μm segments. Cytocochleogrames were prepared for one pair of mice with the best prophylactic function of trimethadione. The percentages of missing IHCs and OHCs were determined by dividing the number of missing hair cells by the total number of hair cells (i.e. present plus absent) in the organ of Corti.

[2] = system: noise-induced hearing loss (NIHL); test: Therapeutic function on noise-induced hearing loss: ABR thresholds, drug in drinking water right after noise exposure
[3] = system: noise-induced hearing loss (NIHL); test: Prophylactic function on noise-induced hearing loss: ABR thresholds, drug in drinking water before noise exposure; conditions: for ABR threshold shift prevented, PTS: Drug-Noise-2w; for ABR threshold shift prevented, PTS / ABR threshold shift prevented, TTS: P<0.01; for ABR threshold shift prevented, TTS: Drug-Noise-24h
[4] = stated as reason for selecting TMO; cited from earlier work
[5] = both male and female mice, 3 months old, drug in drinking water two weeks before noise, one-way ANOVA p<0.05, FIG. 5
[6] = female mice, across five tested frequencies, FIG. 5B
[7] = male mice, five tested frequencies from 5 to 40K, FIG. 5A

SMILES: CCC1(C)CC(=O)NC1=O (stereo not drawn) [ethosuximide]
- number (density) of SGNs, control vs drug-treated mice [1]: no difference; also recorded: not significantly different
- gross morphological changes in mid-modiolar sections, control vs drug-treated mice [1]: No obvious gross morphological changes
- temporary threshold shift (TTS) vs control ([2]; 24 hours after noise (wideband, 110 dB, 30 min), ethosuximide 400 mg/kg/day in drinking water starting immediately after noise, FIG. 2B): significantly lower
- permanent threshold shift (PTS) vs control ([2]; 21 days after noise, ethosuximide 400 mg/kg/day in drinking water for three weeks starting immediately after noise, FIG. 2C): significantly lower
- ABR threshold before the noise exposure vs control ([2]; ethosuximide group vs control, n=5, 2 month-old mice, FIG. 2A): no difference
- ABR threshold shift, PTS, vs control ([2]; male mice (n=5), 3 months old, ethosuximide in drinking water right after noise, P<0.01, FIG. 4): less ABR threshold shift; also recorded: significant protection
- ABR threshold shift, TTS, vs control ([2]; male mice (n=5), 3 months old, ethosuximide in drinking water right after noise, P<0.05, FIG. 4): less ABR threshold shift; also recorded: significant protection

SMILES: CN1C(=O)OC(C)(C)C1=O [trimethadione]
- temporary threshold shift (TTS) vs control ([3]; 24 hours after noise (wideband, 110 dB, 30 min), TMO 200 mg/kg/day in drinking water three weeks before noise, all seven frequencies, FIG. 1B): significantly lower
- permanent threshold shift (PTS) vs control ([3]; 14 days after noise (wideband, 110 dB, 30 min), TMO 200 mg/kg/day in drinking water three weeks before noise, all seven frequencies, FIG. 1C, listed as TMO): significantly lower
- ABR threshold before the noise exposure vs control ([3]; TMO 200 mg/kg body weight/day in drinking water, one week after TMO treatment, n=5, 8 month-old mice, FIG. 1A): no difference
- ABR threshold shift at the apex region ([3]; apex region (0 to 8 kHz), single treated mouse of the pair, control about 25 dB): no shift
- protection from NIHL, PTS [3, 5]: significant protection
- protection from NIHL, TTS [3, 5]: significant protection
- ABR threshold shift after the noise exposure ([3]; both male and female mice, prophylactic treatment): dramatically reduced
- ABR threshold shift prevented, PTS [3, 6]: ~7.0 dB
- ABR threshold shift prevented, TTS [3, 6]: about 5.0 dB
- ABR threshold shift prevented, PTS [3, 7]: ~9.7 dB
- ABR threshold shift prevented, TTS [3, 7]: about 4.3 dB
- permanent ABR threshold shift among five frequencies tested ([3]; single treated mouse (male, 3 months) of a selected pair, drug two weeks before noise, control mouse about 35 dB, FIG. 8): 11 dB
- ABR threshold at 40 kHz before the noise exposure ([3]; single treated mouse of the pair, same value in the control mouse): 28 dB
- loss of IHCs ([1]; apex region (0 to 8 kHz), single treated mouse of the pair, control 0.3%): ~1.9%
- loss of OHCs ([1]; apex region (0 to 8 kHz), single treated mouse of the pair, control 4.6%): ~3.5%
- number (density) of SGNs, control vs drug-treated mice [1]: no difference; also recorded: not significantly different
- missing IHCs ([1]; base region (32 kHz to 64 kHz), single treated mouse of the pair, control 22.2%, FIG. 8): about 1.8%
- missing OHCs ([1]; base region (32 kHz to 64 kHz), single treated mouse of the pair, control 74.4%, FIG. 8): ~68.8%
- gross morphological changes in mid-modiolar sections, control vs drug-treated mice [1]: No obvious gross morphological changes
- morphological differences among groups ([1]; groups testing the prophylactic function): no obvious morphological differences
- IHC numbers, control vs drug-treated mice ([1]; hook, low base, upper base and apex of cochlea, 3-months-old male mice (n=3), FIG. 6A): no significant difference
- OHC numbers, control vs drug-treated mice ([1]; hook, low base, upper base and apex of cochlea, 3-months-old male mice (n=3), Noise-Only-2w vs Noise-Drug-2w, FIG. 6A): trend for the loss of more outer hair cells; also recorded: no significant difference
- ABR threshold shift, TTS, vs control ([2]; female mice (n=4), 24 h after noise, drug right after noise, FIG. 3B): no significant difference
- ABR threshold shift, PTS, vs control ([2]; female mice (n=4), two weeks after noise, drug right after noise, FIG. 3B): no statistical difference
- protection from NIHL, TTS ([2]; male mice (n=3), 3 months old, drug in drinking water right after noise, one-way ANOVA p<0.05, FIG. 3A): significant protection
- ABR threshold shift, PTS, vs control ([2]; male mice (n=3), two weeks after noise, drug right after noise, P<0.01): significantly less; also recorded: significant protection
- less ABR threshold shift than controls, TTS ([2]; male mice, 24 h after noise, drug in drinking water right after noise, across all five frequencies, P<0.05, FIG. 3A): about 10 dB
- pre-exposure ABR thresholds (Pre-Noise-Only vs Pre-Noise-Drug) ([2]; male or female mice, 3 months old, FIGS. 3A and 3B): no significant difference
- water solubility [4]: water soluble
